Experimental data reported in article doi:10.1101/2024.02.15.580468v1, “Morphing Cholinesterase Inhibitor Amiridine into Multipotent Drugs for the Treatment of Alzheimer’s Disease” (biorxiv, 2024).
Where two headings read alike, the source gives them in different places.

Experiments:
in vitro [1] = experiment: in vitro; parameters: PAMPA blood-brain barrier permeability, effective permeability Pe; conditions: PAMPA-BBB Pe
Text: page 4 / Table S1. Inhibition activities of 5–7 and reference compounds (amiridine hydrochloride and THA). hAChE ± SEM^a hBChE ± SEM^a / Pe (10^-6 cm.s^-1)

in vitro [2] = experiment: in vitro; parameters: MTT viability assay, undifferentiated SH-SY5Y cells; conditions: human, undifferentiated sh-sy5y cells, read-out: SH-SY5Y IC50
Experimental: (§1) The cytotoxic profile of 5–7 was carried through the use of the MTT (3-(4,5-dimethylthiazol-2-yl)-2,5-diphenyltetrazolium bromide) assay on human neuroblastoma (SH-SY5Y) and hepatocellular carcinoma (HepG2) cell lines, following established protocols. The cytotoxicity was assessed on SH-SY5Y cells in undifferentiated and in differentiated form. The data obtained from the measurements on the undifferentiated SH-SY5Y and HepG2 cells are summarized in Table 1 for 5c-d, 7c and 7g, as well as for the reference compounds amiridine hydrochloride and THA. Additional data can be found in Supplementary Information (Table S2 and Fig. S1). The both cell lines were cultured according to ECACC recommended conditions and seeded into 96-well plates in 100 µL and density of 8000 per well. For evaluation of cytotoxicity of the differentiated form the SH-SY5Y cells also underwent 9-day differentiation protocol into mature neurons according to Riegerová et al .. The tested compounds were dissolved in DMSO (Sigma Aldrich) or in phosphate buffer saline (PBS, Sigma Aldrich) and subsequently in the growth medium - high glucose Dulbecco’s Modified Eagle’s medium (DMEM; Sigma-Aldrich, D6429). […] Then, the differentiated SH-SY5Y cells were treated with concentrations corresponding to IC50 values obtained from the cytotoxicity measurement using undifferentiated SH-SY5Y cells. Cells were exposed to a tested compound for 24 h. Then the medium was replaced by a medium containing 10 μM of MTT and cells were allowed to produce formazan for another approximately 3 h under surveillance. Thereafter, medium was aspirated and purple crystals of MTT formazan were dissolved in 100 μL DMSO under shaking. Cell viability was assessed spectrophotometrically by the amount of formazan produced. Absorbance was measured at 570 nm with 650 nm reference wavelength on Spark (Tecan Group Ltd, Switzerland). The IC50 value was then calculated from the control-subtracted triplicates using non-linear regression (four parameters) of GraphPad Prism 9 software. Final IC50 and SEM values were obtained as a mean of three independent measurements.

in vitro [3] = experiment: in vitro; parameters: MTT viability assay, HepG2 cells; conditions: human, hepg2 cells; read-out: HepG2 IC50
Experimental: as §1

[4] = target: T1, hAChE (human recombinant acetylcholinesterase) (Homo sapiens, UniProt P22303); experiment: biochemical; parameters: modified Ellman assay, cholinesterase activity, absorbance at 412 nm
T1 construct: gene ACHE; recombinant enzyme, purchased from Sigma-Aldrich
Experimental: (§2) The inhibitory activities of 5–7 and all the reference compounds were determined using modified Ellman’s method against human recombinant AChE (hAChE, E.C. 3.1.1.7, purchased from Sigma-Aldrich, Prague, Czech Republic) and human plasmatic BChE (hBChE, E.C. 3.1.1.8, purchased from Sigma-Aldrich, Prague, Czech Republic). The results are expressed as IC50 (the concentration of the compound that is required to reduce 50% of cholinesterase activity). Other used compounds – phosphate buffer solution (PBS, pH = 7.4), 5,5’-dithio-bis(2-nitrobenzoic) acid (Ellman’s reagent, DTNB), acetylthiocholine (ATCh) and butyrylthiocholine (BTCh) were also commercially available and were purchased from Sigma-Aldrich (Prague, Czech Republic). During the measurement, 96-well microplates from polystyrene (ThermoFisher Scientific, Waltham, MA, USA) were used. The solutions of corresponding enzyme in PBS were prepared up to final activity 0.002 U/µL. The assay medium (100 µL) consisted of cholinesterase (10 µL), DTNB (20 µL of 0.01 M solution) and PBS (40 µL of 0.1 M solution). The solutions of the tested compounds (10 µL of different concentrations) were pre- incubated for 5 minutes in the assay medium and then solution of substrate (20 µL of 0.01 M ATCh or BTCh iodide solution) was added to initiate the reaction. The increase of absorbance was measured at 412 nm using Multimode microplate reader Synergy 2 (BioTek Inc., Winooski, VT, USA). For the calculation of the resulting measured activity (the percentage of inhibition I) following formula was used: [drawing 1] where ΔAi indicates absorbance change provided by adequate enzyme exposed to corresponding inhibitor and ΔA0 indicates absorbance change when a solution of PBS was added instead of a solution of inhibitor. Software Microsoft Excel (Redmont, WA, USA) and GraphPad Prism version 5.02 for Windows (GraphPad Software, San Diego, CA, USA) were used for the statistical data evaluation. ChEs are enzymes responsible for the hydrolysis and metabolism of various endogenous and exogenous substrates, that are broadly studied in association with disease conditions like myasthenia gravis or AD. The primary attention in the development of AD drugs has been paid to AChE inhibitors. Nevertheless, there is growing interest in nonselective or BChE-selective inhibitors due to the compensatory role of BChE when AChE levels are depleted during the progression of AD [23]. Selective BChE inhibitors may be beneficial for patients in moderate-to-severe stages of AD [23, 24]. […] Accordingly, we assessed the inhibition activities of these novel compounds against human recombinant AChE (hAChE) and human serum BChE (hBChE) following a modified spectrophotometric protocol developed by Ellman et al.. […] Complete data are available in the Supplementary Information (Table S1), including the inhibition percentages for all derivatives. Amiridine hydrochloride (amiridine.HCl) and tacrine (THA) were used as reference compounds. […] Only a superficial structure-activity relationship for AChE inhibition can be drawn from the obtained data. […] The presence of any substituent on the benzothiazole core enhanced anti-AChE activity, with the best-tolerated position for the substituent being 6 for derivatives with halogen atoms (7b-d with bromine or 7g-h with [compound left out]. h

[5] = target: T2, hBChE (human serum / plasmatic butyrylcholinesterase) (Homo sapiens, UniProt P06276); experiment: biochemical; parameters: modified Ellman assay, cholinesterase activity, absorbance at 412 nm
T2 construct: gene BCHE; native enzyme from human plasma/serum, purchased from Sigma-Aldrich
Experimental: as §2

in vitro [6] = experiment: in vitro; parameters: PAMPA blood-brain barrier permeability, effective permeability Pe; conditions: PAMPA-BBB Pe; remark: listed apart in the source
Text: page 5 / Table S2. Cytotoxicity profiles of 5–7 on SH-SY5Y cell line and predictions to BBB penetration by PAMPA results. / Pe (10^-6 cm.s^-1)

[7] = target: T2, hBChE (human serum / plasmatic butyrylcholinesterase); experiment: modified Ellman assay, […] nm; format: biochemical

T1 sequence (P22303 32-614): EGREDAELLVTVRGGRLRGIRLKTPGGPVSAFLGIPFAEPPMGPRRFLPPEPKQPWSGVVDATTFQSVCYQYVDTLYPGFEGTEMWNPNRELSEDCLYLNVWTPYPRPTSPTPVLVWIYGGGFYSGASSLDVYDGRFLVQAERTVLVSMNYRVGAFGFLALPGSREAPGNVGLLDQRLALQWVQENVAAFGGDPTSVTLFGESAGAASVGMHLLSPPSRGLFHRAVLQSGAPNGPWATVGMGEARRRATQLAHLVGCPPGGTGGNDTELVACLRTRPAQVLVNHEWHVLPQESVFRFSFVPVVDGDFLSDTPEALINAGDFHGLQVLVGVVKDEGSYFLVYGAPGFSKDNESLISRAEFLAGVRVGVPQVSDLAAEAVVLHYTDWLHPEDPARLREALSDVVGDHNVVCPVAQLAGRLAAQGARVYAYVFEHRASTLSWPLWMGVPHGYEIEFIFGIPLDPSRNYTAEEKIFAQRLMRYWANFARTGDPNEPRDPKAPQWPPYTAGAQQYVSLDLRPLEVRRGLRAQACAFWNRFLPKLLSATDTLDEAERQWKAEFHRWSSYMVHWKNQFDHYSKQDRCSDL
T2 sequence (P06276 29-602): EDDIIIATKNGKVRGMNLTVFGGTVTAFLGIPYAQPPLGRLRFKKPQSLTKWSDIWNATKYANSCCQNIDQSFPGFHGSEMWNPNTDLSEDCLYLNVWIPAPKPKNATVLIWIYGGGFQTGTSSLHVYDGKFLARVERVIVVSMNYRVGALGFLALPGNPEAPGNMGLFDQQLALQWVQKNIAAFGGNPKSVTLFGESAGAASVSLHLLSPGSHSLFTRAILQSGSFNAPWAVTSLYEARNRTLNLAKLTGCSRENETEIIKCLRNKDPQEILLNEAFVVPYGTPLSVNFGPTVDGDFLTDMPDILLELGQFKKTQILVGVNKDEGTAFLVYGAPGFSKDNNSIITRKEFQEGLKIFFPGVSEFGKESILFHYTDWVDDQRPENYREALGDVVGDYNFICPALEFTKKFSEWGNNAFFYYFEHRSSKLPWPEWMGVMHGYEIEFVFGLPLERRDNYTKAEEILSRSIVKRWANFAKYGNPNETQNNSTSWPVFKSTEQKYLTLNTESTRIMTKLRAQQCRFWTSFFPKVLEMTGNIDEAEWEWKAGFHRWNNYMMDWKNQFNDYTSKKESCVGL

## O=C(CNC12CC3CC(CC(C3)C1)C2)Nc1c2c(nc3c1CCC3)CCCC2 [5a]
In vitro [1]
  Papp: 23.4 ± 1.86 ×10⁻⁶ cm/s
In vitro [2]
  CC50 at 24 h: 74 ± 2.8 µM
In vitro [3]
  CC50 at 24 h: 67.9 ± 1.12 µM
[4]
  inhibition at 1 µM: 2.83 ± 0.49%
[5]
  inhibition at 1 µM: 14 ± 1.75%

## CC12CC3CC(C)(C1)CC(NCC(=O)Nc1c4c(nc5c1CCC5)CCCC4)(C3)C2 [5b]
In vitro [2]
  CC50 at 24 h: 31 ± 2.76 µM
In vitro [3]
  CC50 at 24 h: 19.5 ± 1.72 µM
[4]
  inhibition at 1 µM: 9.13 ± 0.48%
[5]
  inhibition at 1 µM: 18.6 ± 0.65%
In vitro [6]
  Papp: 7.63 ± 0.09 ×10⁻⁶ cm/s

## Clc1nc2ccccc2s1 [7a, 2-chlorobenzothiazole]
In vitro [2]
  CC50 at 24 h: 72.3 ± 6.89 µM
In vitro [3]
  CC50 at 24 h: ≥ 200 µM
[4]
  inhibition at 1 µM: 1.46 ± 0.17%
[5]
  inhibition at 1 µM: 7.19 ± 0.91%
In vitro [6]
  Papp: 20.6 ± 0.44 ×10⁻⁶ cm/s

## O=C(CNc1nc2ccc(Br)cc2s1)Nc1c2c(nc3c1CCC3)CCCC2 [7b, 2-[(6-bromo-1,3-benzothiazol-2-yl)amino]-N-{1H,2H,3H,5H,6H,7H,8H-cyclopenta[b]quinolin-9-yl}acetamide]
In vitro [2]
  CC50 at 24 h: ≥ 200 µM
In vitro [3]
  CC50 at 24 h: ≥ 200 µM
[4]
  inhibition at 1 µM: 18.5 ± 0.37%
[5]
  inhibition at 1 µM: 10.83 ± 0.09%
In vitro [6]
  Papp: 3.74 ± 0.36 ×10⁻⁶ cm/s

## O=C(CNc1nc2cc(Br)ccc2s1)Nc1c2c(nc3c1CCC3)CCCC2 [7c, 2-[(5-bromo-1,3-benzothiazol-2-yl)amino]-N-{1H,2H,3H,5H,6H,7H,8H-cyclopenta[b]quinolin-9-yl}acetamide]
In vitro [2]
  CC50 at 24 h: 17.7 ± 2.34 µM
[7]
  IC50: 4.9 ± 0.4 µM
In vitro [3]
  CC50 at 24 h: 21.61 ± 0.21 µM
[4]
  inhibition at 1 µM: 15.7 ± 1.17%
[5]
  inhibition at 1 µM: 25 ± 2.39%
In vitro [6]
  Papp: 2.13 ± 1.04 ×10⁻⁶ cm/s

## O=C(CNc1nc2c(Br)cccc2s1)Nc1c2c(nc3c1CCC3)CCCC2 [7d, 2-[(4-bromo-1,3-benzothiazol-2-yl)amino]-N-{1H,2H,3H,5H,6H,7H,8H-cyclopenta[b]quinolin-9-yl}acetamide]
In vitro [2]
  CC50 at 24 h: 111 ± 5.6 µM
In vitro [3]
  CC50 at 24 h: 14.5 ± 1.84 µM
[4]
  inhibition at 1 µM: 1.8 ± 0.33%
[5]
  inhibition at 1 µM: 6.73 ± 0.45%
In vitro [6]
  Papp: 2.62 ×10⁻⁶ cm/s

## N#Cc1ccc2sc(NCC(=O)Nc3c4c(nc5c3CCC5)CCCC4)nc2c1 [7e, 2-[(5-cyano-1,3-benzothiazol-2-yl)amino]-N-{1H,2H,3H,5H,6H,7H,8H-cyclopenta[b]quinolin-9-yl}acetamide]
In vitro [2]
  CC50 at 24 h: 77.4 ± 4.54 µM
In vitro [3]
  CC50 at 24 h: 26.4 ± 1.82 µM
[4]
  inhibition at 1 µM: 13.3 ± 0.57%
[5]
  inhibition at 1 µM: 13.9 ± 0.6%
In vitro [6]
  Papp: 13.9 ± 1.26 ×10⁻⁶ cm/s

## O=C(CNc1nc2cc(Cl)ccc2s1)Nc1c2c(nc3c1CCC3)CCCC2 [7g, 2-[(5-chloro-1,3-benzothiazol-2-yl)amino]-N-{1H,2H,3H,5H,6H,7H,8H-cyclopenta[b]quinolin-9-yl}acetamide]
In vitro [2]
  CC50 at 24 h: 98.2 ± 5.74 µM
[7]
  IC50: 11 ± 1.2 µM
In vitro [3]
  CC50 at 24 h: ≥ 200 µM
[4]
  inhibition at 1 µM: 11.9 ± 0.74%
[5]
  inhibition at 1 µM: 26.5 ± 1.45%
In vitro [6]
  Papp: 2.8 ± 0.79 ×10⁻⁶ cm/s

## O=C(CNc1nc2ccc([N+](=O)[O-])cc2s1)Nc1c2c(nc3c1CCC3)CCCC2 [7i, N-{1H,2H,3H,5H,6H,7H,8H-cyclopenta[b]quinolin-9-yl}-2-[(6-nitro-1,3-benzothiazol-2-yl)amino]acetamide]
In vitro [2]
  CC50 at 24 h: 91.3 ± 11 µM
In vitro [3]
  CC50 at 24 h: ≥ 200 µM
[4]
  inhibition at 1 µM: 7.98 ± 0.99%
[5]
  inhibition at 1 µM: 0.93 ± 0.08%
In vitro [6]
  Papp: 4.89 ± 1.5 ×10⁻⁶ cm/s

## O=C(CNc1nc2cc([N+](=O)[O-])ccc2s1)Nc1c2c(nc3c1CCC3)CCCC2 [7j, N-{1H,2H,3H,5H,6H,7H,8H-cyclopenta[b]quinolin-9-yl}-2-[(5-nitro-1,3-benzothiazol-2-yl)amino]acetamide]
In vitro [2]
  CC50 at 24 h: 93.7 ± 5.38 µM
In vitro [3]
  CC50 at 24 h: 25.83 ± 0.25 µM
[4]
  inhibition at 1 µM: 8.2 ± 0.41%
[5]
  inhibition at 1 µM: 8.03 ± 1.37%
In vitro [6]
  Papp: 1.83 ± 0.54 ×10⁻⁶ cm/s

## O=C(CNc1nc2cccc([N+](=O)[O-])c2s1)Nc1c2c(nc3c1CCC3)CCCC2 [7k, N-{1H,2H,3H,5H,6H,7H,8H-cyclopenta[b]quinolin-9-yl}-2-[(7-nitro-1,3-benzothiazol-2-yl)amino]acetamide]
In vitro [2]
  CC50 at 24 h: 51 ± 8.56 µM
In vitro [3]
  CC50 at 24 h: ≥ 200 µM
[4]
  inhibition at 1 µM: 9.62 ± 0.41%
[5]
  inhibition at 1 µM: 4.47 ± 0.58%
In vitro [6]
  Papp: 1.12 ± 0.62 ×10⁻⁶ cm/s

## CSc1ccc2nc(NCC(=O)Nc3c4c(nc5c3CCC5)CCCC4)sc2c1 [7l, N-{1H,2H,3H,5H,6H,7H,8H-cyclopenta[b]quinolin-9-yl}-2-{[6-(methylsulfanyl)-1,3-benzothiazol-2-yl]amino}acetamide]
In vitro [2]
  CC50 at 24 h: 173 ± 17.6 µM
In vitro [3]
  CC50 at 24 h: ≥ 200 µM
[4]
  inhibition at 1 µM: 7.56 ± 0.38%
[5]
  inhibition at 1 µM: 6.05 ± 1.77%
In vitro [6]
  Papp: 2.65 ± 0.01 ×10⁻⁶ cm/s

## Cc1c(C)c2c(c(C)c1O)CCC(C)(C(=O)NCC(=O)Nc1c3c(nc4c1CCC4)CCCC3)O2 (stereo not drawn) [compound 6, N-{1H,2H,3H,5H,6H,7H,8H-cyclopenta[b]quinolin-9-yl}-2-[(6-hydroxy-2,5,7,8-tetramethyl-3,4-dihydro-2H-1-benzopyran-2-yl)formamido]acetamide]
In vitro [2]
  CC50 at 24 h: ≥ 200 µM
[4]
  inhibition at 1 µM: 3.95 ± 0.25%
[5]
  inhibition at 1 µM: 21.5 ± 0.94%
In vitro [6]
  Papp: 15.9 ± 0.38 ×10⁻⁶ cm/s
